The target of the assay is T1, human CB1 receptor (Homo sapiens, UniProt P21554).
T1 construct: expressed in transfected cells; membrane preparation
T1 sequence (P21554 whole entry): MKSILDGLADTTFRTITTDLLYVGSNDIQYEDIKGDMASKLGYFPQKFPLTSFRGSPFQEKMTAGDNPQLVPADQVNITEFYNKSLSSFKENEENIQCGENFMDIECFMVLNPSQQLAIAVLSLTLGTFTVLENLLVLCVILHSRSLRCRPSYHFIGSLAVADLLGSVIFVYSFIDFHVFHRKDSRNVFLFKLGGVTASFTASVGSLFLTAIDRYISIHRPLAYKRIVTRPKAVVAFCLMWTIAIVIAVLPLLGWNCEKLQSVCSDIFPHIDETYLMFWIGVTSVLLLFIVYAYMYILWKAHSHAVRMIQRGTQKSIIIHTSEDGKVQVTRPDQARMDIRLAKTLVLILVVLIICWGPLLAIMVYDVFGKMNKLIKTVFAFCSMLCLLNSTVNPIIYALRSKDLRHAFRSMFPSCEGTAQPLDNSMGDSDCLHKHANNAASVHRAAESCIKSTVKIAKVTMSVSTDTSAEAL
Kind of assay: Cannabinoid Receptor-1 functional assay: inhibition of CP55940-induced [35S]GTPγS binding to membranes from CHO-K1 cells expressing the human CB1 receptor. It is filed as biochemical. To be noted: antagonizing CB1 receptor agonist CP55940 (3 nM), [35S]GTPγS SPA, read-out: Antagonism IC50. From the text:
Transfection and Cell Culture—The cDNA encoding the human CB1 (Cannabinoid Receptor-1) receptor (GenBank accession number NM_016083) was cloned from a human adipose tissue cDNA library and cloned into the eukaryotic expression vector pcDNA3.1 (Invitrogen).
Chinese Hamster Ovary cells (CHO-K1) stably expressing recombinant human CB1 receptors were generated by transfecting the plasmid containing the coding sequence of the human CB1 receptor in CHO-K1 cells, using lipofectamine, according to the manufacturers instructions. Resistant clones were selected in the presence of 600 μg/ml G418 (Life technology). Stably transfected CHO-K1 cells were maintained in Ham's F-12 culture medium (Invitrogen), supplemented with 10% fetal calf serum (Invitrogen), 100 U/ml penicillin, 100 μg/ml streptomycin (Life Technology), and 600 μg/ml G418.
Cannabinoid Receptor-1 Functional Assay.
Functional activities of the above examples of compounds of the invention were assessed in vitro by measuring their ability to inhibit CP55940-induced [^35S]GTPγS binding to membranes prepared from CHO-K1 cells expressing the human CB1 receptor (described in Transfection and Cell Culture). CP55940 is a well known non-selective CB1 and CB2 receptor agonist (e.g Felder et al., 1995, Molecular Pharmacology, (48) 443-50). Membranes were prepared by a standard procedure. Briefly, cells were harvested using 10 mM EDTA and collected by centrifugation. Pelleted cells were homogenized in ice-cold 20 mM Hepes (pH 7.4), 10 mM EDTA and protease inhibitors (Complete protease inhibitor cocktail tablet, Roche) using an Ultra Turrax Homogenizer. The homogenate was centrifuged at 14 000 rpm for 45 min. at 4° C. The resultant pellet was resuspended in the same buffer but with only 0.1 mM EDTA and was again centrifuged at 14 000 rpm for 45 min. at 4° C. The resulting pellet (membranes) was resuspended in 20 mM Hepes (pH 7.4), 0.1 mM EDTA, 2 mM MgCl2 and protease inhibitors and protein concentration was determined by Micro BCA Protein Assay Reagent Kit (Pierce Biotechnology) according to the manufacturers instructions. The [^35S]GTPγS SPA (Scintillation Proximity Assay) binding assay was performed by incubating 5 μg/well membranes prepared from CHO-K1 cells expressing the human CB1 receptor with 1 nM [^35S]GTPγS (Perkin Elmer—NEG 030H) in the presence of 3 nM of CP55940 and various concentrations of the test compounds at room temperature for 1 hr in 96-well microtiter plates. 0.4 mg/well SPA beads (PVT-WGA; RPNQ0001 Amersham Pharmacia Biotech) were then added and the incubation continued for further 30 min. on an orbital shaker. The assay buffer contained 50 mM HEPES (pH 7.5), 50 mM NaCl, 2.5 mM MgCl2, 0.1% BSA, 1 μM GDP and 100 μg/ml Saponin. Microtiter plates were centrifuged at 1500 rpm for 5 min. and radioactivity was read immediately using a Topcounter (PerkinElmer Life Sciences). Data were analyzed and IC50 values determined by non-linear regression analysis using the Prism software (GraphPad Software, San Diego).
As a reminder, the IC50 is the concentration that gives 50% inhibition. Regarding “1-(2-Chloro-phenyl)-5-(4-chloro-phenyl)-4-(5-oxo-4,5-dihydro-[1,3,4]oxadiazol-2-ylmethyl)-1H-pyrazole-3-carboxylic acid ((R)-1-p-tolyl-ethyl)-amide [Compound 2.02]”, the IC50 was under 500 nM.

Consider `C[C@@H](NC(=O)c1nn(-c2ccccc2Cl)c(-c2ccc(Cl)cc2)c1Cc1noc(=O)[nH]1)c1ccc(C(F)(F)F)cc1` [Compound 1.01, 5-(4-Chloro-phenyl)-1-(2-chloro-phenyl)-4-(5-oxo-4,5-dihydro-[1,2,4]oxadiazol-3-ylmethyl)-1H-pyrazole-3-carboxylic acid [(R)-1-(4-trifluoromethyl-phenyl)-ethyl]-amide], for which the half-maximal inhibitory concentration (IC50) was under 500 nM.

For `O=C(c1nn(-c2ccccc2Cl)c(-c2ccc(Cl)cc2)c1Cc1n[nH]c(=O)o1)N1CCC(c2ccccc2F)CC1` [Compound 2.01, 5-{5-(4-Chloro-phenyl)-1-(2-chloro-phenyl)-3-[4-(2-fluoro-phenyl)-piperidine-1-carbonyl]-1H-pyrazol-4-ylmethyl}-3H-[1,3,4]oxadiazol-2-one], the half-inhibitory concentration (IC50) is under 500 nM.

In the case of `CS(=O)(=O)NC(=O)Cc1c(C(=O)N2CCC(c3ccccc3F)CC2)nn(-c2ccccc2Cl)c1-c1ccc(Cl)cc1` [Compound 3.01, N-(2-{1-(2-Chloro-phenyl)-5-(4-chloro-phenyl)-3-[4-(2-fluoro-phenyl)-piperidine-1-carbonyl]-1H-pyrazol-4-yl}-acetyl)-methanesulfonamide], the concentration for half-maximal inhibition (IC50) is under 500 nM.

`C[C@H](c1ccc(C(F)(F)F)cc1)N(C)C(=O)c1nn(-c2ccccc2Cl)c(-c2ccc(Cl)cc2)c1CC(=O)NS(C)(=O)=O` [Compound 3.02, 1-(2-Chloro-phenyl)-5-(4-chloro-phenyl)-4-(2-methanesulfonylamino-2-oxo-ethyl)-1H-pyrazole-3-carboxylic acid methyl-[(R)-1-(4-trifluoromethyl-phenyl)-ethyl]-amide]: the IC50 was under 500 nM.

As for `N#CNC(=O)Cc1c(C(=O)N2CCC(c3ccccc3F)CC2)nn(-c2ccccc2Cl)c1-c1ccc(Cl)cc1` [Compound 4.01, 2-{1-(2-Chloro-phenyl)-5-(4-chloro-phenyl)-3-[4-(2-fluoro-phenyl)-piperidine-1-carbonyl]-1H-pyrazol-4-yl}-N-cyano-acetamide], the IC50 is under 500 nM.

`C[C@H](c1ccc(C(F)(F)F)cc1)N(C)C(=O)c1nn(-c2ccccc2Cl)c(-c2ccc(Cl)cc2)c1CC(=O)NC#N` [Compound 4.02, (1-(2-Chloro-phenyl)-5-(4-chloro-phenyl)-3-{methyl-[(R)-1-(4-trifluoromethyl-phenyl)-ethyl]-carbamoyl}-1H-pyrazol-4-yl)-N-cyano-acetamide]: the IC50 is under 500 nM.

For the compound `N#CNC(=O)Cc1c(C(=O)N2CCC(Oc3cc(F)cc(F)c3)CC2)nn(-c2ccccc2Cl)c1-c1ccc(Cl)cc1` [Compound 4.03, {1-(2-Chloro-phenyl)-5-(4-chloro-phenyl)-3-[4-(3,5-difluoro-phenoxy)-piperidine-1-carbonyl]-1H-pyrazol-4-yl}-N-cyano-acetamide], the IC50 was under 500 nM.

`C[C@H](c1ccc(C(F)(F)F)cc1)N(C)C(=O)c1nn(-c2ccccc2Cl)c(-c2ccc(Cl)cc2)c1C1CC(=O)NC1=O` (stereo partly drawn) [Compound 5.01, 1-(2-Chloro-phenyl)-5-(4-chloro-phenyl)-4-(2,5-dioxo-pyrrolidin-3-yl)-1H-pyrazole-3-carboxylic acid methyl-[(R)-1-(4-trifluoromethyl-phenyl)-ethyl]-amide]: the IC50 was under 500 nM.

With `O=C1NC(=O)C(Cc2c(C(=O)N3CCC(c4ccccc4F)CC3)nn(-c3ccccc3Cl)c2-c2ccc(Cl)cc2)N1` (centres unmarked) [Compound 6.01, 5-{1-(2-Chloro-phenyl)-5-(4-chloro-phenyl)-3-[4-(2-fluoro-phenyl)-piperidine-1-carbonyl]-1H-pyrazol-4-ylmethyl}-imidazolidine-2,4-dione], the half-maximal inhibitory concentration (IC50) was under 500 nM.

In the case of `C[C@@H](NC(=O)c1nn(-c2ccccc2Cl)c(-c2ccc(Cl)cc2)c1CC1NC(=O)NC1=O)c1ccc(C(F)(F)F)cc1` (some centres unmarked) [Compound 6.02], the IC50 is under 500 nM.

The values above are taken from patent US8173680B2, “Cannabinoid receptor modulators” (7TM Pharma A/S, priority 2007, dated 2012).
